In patent US20240124610A1, “METHODS FOR TREATING HER2-NEGATIVE OR HER2-LOW CANCER” (Washington University, priority 2022, published 2024):
Entries after “also recorded” stand apart in the source; their conditions may differ.

Legend:
breast cancer patients = experiment: Survival analysis of tamoxifen-treated breast cancer patients by BCAR4 expression; format: in vivo, human
From the text: FIG. 25 is a survival curve showing BCAR4-positive patients (blue) have worse outcome when treated with tamoxifen in accordance with the present disclosure.
BCAR4+ is categorized as the top 20% and BCAR4− as the bottom 80%.

[1] = tested on: MCF7 (ER+/HER2-negative) cells expressing full length BCAR4 or LITAF-BCAR4 gene fusion; experiment: Tamoxifen treatment of BCAR4-overexpressing breast cancer cells (FIG. 37); format: cell-based; conditions: in vitro
From the text: FIG. 37 is a graph showing BCAR4 gene fusion-expressing cells are resistance to Tamoxifen treatment in breast cancer in accordance with the present disclosure. MCF7 (ER+/HER2-negative) overexpressing cell lines expressing full length BCAR4 (B4) or LITAF-BCAR4 gene fusion (LB) were used.
BCAR4 gene fusion-expressing cells are resistant to Tamoxifen treatment in breast cancer (see e.g., FIG. 37). It is known that full length BCAR4 is resistant to tamoxifen therapy, but no one has shown that BCAR4 gene fusions cause resistance. BCAR4-fusions express only the 4th exon of BCAR4 gene.

[2] = tested on: patients expressing BCAR4; conditions: letrozole (AI treatment); public data GSE41994; FIG. 39; cited from earlier work
[3] = tested on: HER2/HER3 signaling in ZR-75-1 cells; experiment: Western blot of HER3/AKT signaling in lapatinib-treated cells (FIG. 29D); format: cell-based; parameters: dose or concentration left out as unconfirmed; conditions: ZR-75-1 cells expressing full length BCAR4 or gene fusions
Method: Antibodies against FLAG (2368S; RRID:AB_2217020, 1:1000; Cell Signaling Technology), actin (3700S; RRID:AB_2242334, 1:10,000; Cell Signaling Technology), Goat anti-mouse or anti-rabbit peroxidase-conjugated secondary antibodies (Thermo Fisher Scientific) were used for experiments. Protein samples were prepared with ice-cold RIPA lysis buffer (25 mmol/L Tris pH7.5, 1% NP40, 0.1% SDS, 150 mmol/L NaCl, 0.5% sodium deoxycholate, and 1× Halt Protease Inhibitor Cocktail; Thermo Fisher Scientific). Lysate was subjected to a short sonication and then clarified by centrifugation at maximum speed, 4° C. for 10 minutes. Protein concentration was determined with the DC Protein Assay (BioRad). Samples were diluted in loading buffer, boiled, and equal protein concentrations (20-30 mg) loaded and resolved by SDS-polyacrylamide gel electrophoresis in 12% or 4% to 12% Bolt Bis-Tris precast gels (Invitrogen). Gels were transferred at 60° C. for 1 hour to a nitrocellulose membrane (BioRad). Proteins were detected with specific antibodies and visualized and quantified on the ChemDoc MP Imaging System (BioRad) using secondary antibodies and Clarity Western ECL Substrate (Thermo Fisher Scientific).

[4] = tested on: ZR751 cells overexpressing BCAR4 full length or gene fusions; experiment: Cell viability under lapatinib treatment (FIG. 24); format: cell-based; conditions: ZR751 cells overexpressing BCAR4 full length or gene fusions vs control cells without BCAR4, increased lapatinib
BCAR4-expressing cells = experiment: Cell growth under lapatinib treatment (FIG. 42); format: cell-based; conditions: BCAR4-expressing cells treated with lapatinib
From the text: In breast cancer HER3 preferentially binds to HER2 to form a heterodimer.

CC/C(=C(\c1ccccc1)c1ccc(OCCN(C)C)cc1)c1ccccc1 [tamoxifen]
outcome of BCAR4-high patients (breast cancer patients; tamoxifen only treatment, TCGA cohort (n=186), FIG. 35): worse outcomes | distant metastasis free survival of BCAR4-high patients (breast cancer patients; tamoxifen treatment, GSE6532 cohort, FIG. 36): worse distant metastasis free survival | outcome of early stage BCAR4-positive vs BCAR4-negative patients (breast cancer patients; tamoxifen, microarray data of early-stage breast cancer patients, FIG. 25): poor outcome | response to Tamoxifen treatment [1]: resistant

N#Cc1ccc(C(c2ccc(C#N)cc2)n2cncn2)cc1 [letrozole]
Progression Free Survival of top 25% of patients expressing BCAR4 [2]: worse Progression Free Survival

CS(=O)(=O)CCNCc1ccc(-c2ccc3ncnc(Nc4ccc(OCc5cccc(F)c5)c(Cl)c4)c3c2)o1 [lapatinib]
phosphorylation of HER3 and downstream activation of AKT [3]: attenuated these changes; also recorded: inhibited | phosphorylation of HER3 and downstream activation of AKT ([3]; listed as Lapatinib): lose HER3 activation | cell viability [4]: decreased cell viability | cell growth (BCAR4-expressing cells): decreased growth
